Experimental data: patent US20230286973A1, “PROTEIN SECRETION INHIBITORS” (KEZAR LIFE SCIENCES, priority 2020, published 2023)

Assays:
[1] = Liver Microsome Stability Assay (monkey); details: monkey liver microsomes, with NADPH, 1.0 uM compound
Procedure: (§1) Stability of a compound was assessed in the presence of liver microsomes from various sources—mouse, rat, monkey and human liver microsomes. 1.0 uM compound, 0.4% DMSO in 0.1 M Potassium Phosphate with 1.0 mg/mL liver microsomes, were incubated at 37° C. with or without 1 mM NADPH. The samples were quenched at 0, and 30 minutes.

[2] = Liver Microsome Stability Assay (rat); details: rat liver microsomes, with NADPH, 1.0 uM compound
Procedure: as §1

[3] = Liver Microsome Stability Assay (human); details: human liver microsomes, with NADPH, 1.0 uM compound
Procedure: as §1

[4] = tested on: IL-2-FL/Gaussia Luciferase; experiment: Dox Induced IL2-FL-Gluc Assay; type: cell-based; details: for IC50: 24 hr Dox induction, 293FRT/TO cells, mean, read-out: 24 hr Dox Inducible IL2FLGluc 293FRT/TO: Mean IC50; for 24 hr Dox Inducible IL2FLGluc 293FRT/TO: IL2/PD1: ratio of IL2FLGluc IC50 to PD1ssGluc IC50, '<=>' given where both are I.A.
How it was run: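 Stable Flp-In 293 T-REx cells carrying doxycycline-inducible full-length IL-2 (aa 1-153) fused to Gaussia luciferase, plated the day before assay. Compound dilutions added in medium containing doxycycline, incubated at 37 °C, 5% CO2. Undefined stereocentres mean data refer to stereoisomer mixtures.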

[5] = tested on: PD1-ss+10aa/Gaussia Luciferase; experiment: Dox-Induced PD1-ss-Gluc Assay; type: cell-based; details: 24 hr Dox induction; 293FRT/TO cells; mean; read-out: 24 hr Dox Inducible PD1ssGluc 293FRT/TO: Mean IC50
How it was run: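 The cell line was made by transfecting Flp-In 293 T-REx cells with a PD1 signal sequence+10aa–Gaussia luciferase fusion under T-REx control and selecting with hygromycin and blasticidin. Cells were seeded, and next day compound plus doxycycline was added at 37 °C, 5% CO2.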

[6] = tested on: TNFα-FL/Gaussia Luciferase; experiment: Dox Induced TNFα-FL-Gluc Assay; type: cell-based; details: for IC50: 24 hr Dox induction, 293FRT/TO cells, mean, read-out: 24 hr Dox Inducible TNFaFLGluc 293FRT/TO: Mean IC50; for 24 hr Dox Inducible TNFaFLGluc 293FRT/TO: TNF/PD1: ratio of TNFaFLGluc IC50 to PD1ssGluc IC50, '<=>' given where both are I.A.
How it was run: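 Flp-In 293 T-REx cells stably carrying doxycycline-inducible full-length TNFα (aa 1-233) fused to Gaussia luciferase. Plated the day before, then treated with compound dilutions in doxycycline-containing medium at 37° C, 5% CO2.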

[7] = tested on: multiple myeloma cell line NCI-H929; experiment: H929 Cell Viability Assay; type: cell-based, human; details: Homo sapiens, NCI-H929, 48 h, NCI-H929 cells, Celltiter-Glo
How it was run: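 NCI-H929 cells in RPMI 1640 with 10% FBS were treated with compound dilutions for 48 h at 37° C, 5% CO2. Viability was read by CellTiter-Glo luminescence. Undefined stereocentres denote stereoisomer mixtures.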

[8] = tested on: HER3-ss+4aa/Gaussia Luciferase; experiment: Dox-Induced Her3-ss-Gluc Assay; type: cell-based; details: 24 hr Dox induction; 293FRT/TO cells; mean; read-out: 24 hr Dox Inducible Her3(ss + 4)Gluc 293FRT/TO: Mean IC50
How it was run: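 Stable Flp-In 293 T-REx cells carried a doxycycline-inducible HER3 signal sequence (+4 aa) fused to Gaussia luciferase. Cells were plated the day before the assay. Compound dilutions in DMSO/media containing doxycycline were then added, and plates were incubated at 37 °C, 5% CO2.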

[9] = Liver Microsome Stability Assay (mouse); details: mouse liver microsomes, with NADPH, 1.0 uM compound
Procedure: as §1

[10] = tested on: multiple myeloma cell line U266B1; experiment: U266 Cell Viability Assay; type: cell-based, human; details: Homo sapiens, U-266, 48 h, U266B1 cells, Celltiter-Glo
How it was run: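 U266B1 multiple myeloma cells in RPMI 1640/10% FBS were treated with compound dilutions for 48 h at 37 °C, 5% CO2. Viability was measured by CellTiter-Glo luminescence; compounds drawn without stereochemistry were tested as stereoisomer mixtures.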

| SMILES | Liver Microsome Stability (Multiple Species): Monkey - % Remaining after 30 min w/NADPH [1] [%] | Liver Microsome Stability (Multiple Species): Rat - % Remaining after 30 min w/NADPH [2] [%] | Liver Microsome Stability (Multiple Species): Human - % Remaining after 30 min w/NADPH [3] [%] | IC50 [4] [µM] | 24 hr Dox Inducible IL2FLGluc 293FRT/TO: IL2/PD1 [4] | IC50 [5] [µM] | IC50 [6] [µM] | 24 hr Dox Inducible TNFaFLGluc 293FRT/TO: TNF/PD1 [6] | EC50 [7] [µM] | IC50 [8] [µM] | Liver Microsome Stability (Multiple Species): Mouse - % Remaining after 30 min w/NADPH [9] [%] | EC50 [10] [µM] |
| --- | --- | --- | --- | --- | --- | --- | --- | --- | --- | --- | --- | --- |
| COCCCCn1cccc1C(=O)Nc1nc([C@H]2CCCN2c2ccccc2)cs1 [Compound C23, (R)-1-(4-methoxybutyl)-N-(4-(1-phenylpyrrolidin-2-yl)thiazol-2-yl)-1H-pyrrole-2-carboxamide] | 4.38 | 8.52 | 15.8 | 7.65 | 1.5 | 5.09 | > 25 | >4.91 | 24.1 | 17.5 | 12.7 | > 25 |
| Cc1ccc(N2CCC[C@@H]2c2csc(NC(=O)c3cccn3CC3CCOCC3)n2)cc1 [Compound C53, (R)-1-((tetrahydro-2H-pyran-4-yl)methyl)-N-(4-(1-(p-tolyl)pyrrolidin-2-yl)thiazol-2-yl)-1H-pyrrole-2-carboxamide] | 23.6 | 60.2 | 63.8 | 0.0719 | 4.9 | 0.0146 | 0.266 | 18.2 | 1.9 | 0.0387 | 62.6 | > 25 |
| O=C(Nc1nc([C@H]2CCCN2c2ccc(OC(F)(F)F)cc2)cs1)c1cccn1CC1CCOCC1 [Compound C54, (R)-1-((tetrahydro-2H-pyran-4-yl)methyl)-N-(4-(1-(4-(trifluoromethoxy)phenyl)pyrrolidin-2-yl)thiazol-2-yl)-1H-pyrrole-2-carboxamide] | 46.8 | 67.6 | 77.9 | 0.479 | 3.6 | 0.132 | 1.79 | 13.5 | 6.53 | 0.272 | 99.1 | > 25 |
| O=C(Nc1nc([C@H]2CCCN2c2ccccc2)cs1)c1cccn1CC1CCOCC1 [Compound C55, (R)-N-(4-(1-phenylpyrrolidin-2-yl)thiazol-2-yl)-1-((tetrahydro-2H-pyran-4-yl)methyl)-1H-pyrrole-2-carboxamide] | 6.6 | 22.5 | 26.7 | 0.74 | 4.4 | 0.168 | 2.56 | 15.3 | 20.1 | 0.374 | 22.7 | > 25 |
| O=C(Nc1nc([C@H]2CCCN2c2ccccc2)cs1)c1cccn1CC1CCOC1 (stereo partly drawn) [Compound C56, N-(4-((R)-1-phenylpyrrolidin-2-yl)thiazol-2-yl)-1-((tetrahydrofuran-3-yl)methyl)-1H-pyrrole-2-carboxamide] | 2.02 | 10.9 | 24.4 | 4.67 | 2.7 | 1.75 | 19.2 | 11 | > 25 | 3.27 | 21 | > 25 |
| NC(=O)CCCCn1cccc1C(=O)Nc1nc([C@H]2CCCN2c2ccccc2)cs1 [Compound C58] | 27.4 | 34.7 | 35.7 | > 25 | 3.2 | 7.88 | > 25 | >3.17 | > 25 | 9.1 | 17 | > 25 |
| CN(C)C(=O)CCn1cccc1C(=O)Nc1nc([C@H]2CCCN2c2ccccc2)cs1 [Compound C59, (R)-1-(3-(dimethylamino)-3-oxopropyl)-N-(4-(1-phenylpyrrolidin-2-yl)thiazol-2-yl)-1H-pyrrole-2-carboxamide] | 2.48 | 11.5 | 0.87 | > 25 | 3.1 | 7.98 | > 25 | >3.13 | > 25 | 12.2 | 3.23 | > 25 |
| CN(C)C(=O)CCCCn1cccc1C(=O)Nc1nc([C@H]2CCCN2c2ccccc2)cs1 [Compound C60, (R)-1-(5-(dimethylamino)-5-oxopentyl)-N-(4-(1-phenylpyrrolidin-2-yl)thiazol-2-yl)-1H-pyrrole-2-carboxamide] | 0.09 | 6.4 | 0.05 | > 25 | 2.9 | 8.59 | > 25 | >2.91 | > 25 | > 25 | 0.25 | > 25 |
